Data taken from ChEMBL document CHEMBL1764984 (J Med Chem, 2011).
≈ marks a conversion by molar mass, not a printed value.

What was measured:
Blood = assay: Inhibition of TNFalpha-induced IL1-beta production in human whole blood after 2 to 5 hrs by ELISA; format: functional, tissue-based
[1] = target: T1, Mitogen-activated protein kinase 14 (Homo sapiens, UniProt Q16539); assay: Inhibition of human recombinant p38alpha assessed as incorporation of 33P from gamma-[33P]ATP into myelin basic protein after 30 mins by scintillation counting
T1 sequence (Q16539 whole entry): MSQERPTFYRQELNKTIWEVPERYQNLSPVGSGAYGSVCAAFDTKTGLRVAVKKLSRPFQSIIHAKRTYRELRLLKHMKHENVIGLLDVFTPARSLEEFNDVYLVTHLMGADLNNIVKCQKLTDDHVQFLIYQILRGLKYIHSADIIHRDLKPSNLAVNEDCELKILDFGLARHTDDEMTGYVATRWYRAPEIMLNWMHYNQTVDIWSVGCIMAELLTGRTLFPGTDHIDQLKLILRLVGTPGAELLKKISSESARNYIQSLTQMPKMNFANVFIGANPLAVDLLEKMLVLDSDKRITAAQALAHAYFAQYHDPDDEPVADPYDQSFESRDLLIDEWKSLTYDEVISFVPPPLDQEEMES

[2] = Permeability of the compound from apical to basolateral side of human Caco2 cells at 10 uM after 21 days; format: ADME, cell-based; details: Caco-2, read-out: permeability
[3] = Permeability of the compound from basolateral to apical side of human Caco2 cells at 10 uM after 21 days; format: ADME, cell-based; details: Caco-2, read-out: permeability
[4] = Aqueous solubility of the compound in phosphate buffer at pH 6.5; format: physicochemical
Rattus norvegicus [5] = assay: Inhibition of LPS-induced TNFalpha production in rat serum at 3 mg/kg, po administered 30 mins before LPS challenge measured after […] by ELISA; format: functional
Cytochrome P450 3A4 = Cytochrome P450 3A4 (Homo sapiens, UniProt P08684); assay: Inhibition of human CYP3A4; format: ADME
Sequence of Cytochrome P450 3A4 (P08684 whole entry, the tested form may be a part): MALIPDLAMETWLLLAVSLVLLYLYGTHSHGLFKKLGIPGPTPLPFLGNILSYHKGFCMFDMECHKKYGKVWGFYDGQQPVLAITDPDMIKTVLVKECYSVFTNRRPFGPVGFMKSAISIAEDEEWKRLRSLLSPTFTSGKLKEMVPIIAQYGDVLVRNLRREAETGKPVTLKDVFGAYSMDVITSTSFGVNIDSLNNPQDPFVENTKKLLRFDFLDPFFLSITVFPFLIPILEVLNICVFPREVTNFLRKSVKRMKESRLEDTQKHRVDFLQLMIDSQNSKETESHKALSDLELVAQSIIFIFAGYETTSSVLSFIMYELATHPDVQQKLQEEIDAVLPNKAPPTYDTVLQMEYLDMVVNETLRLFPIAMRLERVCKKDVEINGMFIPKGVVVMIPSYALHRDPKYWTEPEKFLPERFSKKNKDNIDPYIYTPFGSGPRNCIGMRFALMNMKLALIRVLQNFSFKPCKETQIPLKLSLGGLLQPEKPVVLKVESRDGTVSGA

[6] = target: Epithelial discoidin domain-containing receptor 1 (Homo sapiens, UniProt Q08345); assay: Inhibition of DDR1
Sequence of Epithelial discoidin domain-containing receptor 1 (Q08345 whole entry, the tested form may be a part, canonical isoform): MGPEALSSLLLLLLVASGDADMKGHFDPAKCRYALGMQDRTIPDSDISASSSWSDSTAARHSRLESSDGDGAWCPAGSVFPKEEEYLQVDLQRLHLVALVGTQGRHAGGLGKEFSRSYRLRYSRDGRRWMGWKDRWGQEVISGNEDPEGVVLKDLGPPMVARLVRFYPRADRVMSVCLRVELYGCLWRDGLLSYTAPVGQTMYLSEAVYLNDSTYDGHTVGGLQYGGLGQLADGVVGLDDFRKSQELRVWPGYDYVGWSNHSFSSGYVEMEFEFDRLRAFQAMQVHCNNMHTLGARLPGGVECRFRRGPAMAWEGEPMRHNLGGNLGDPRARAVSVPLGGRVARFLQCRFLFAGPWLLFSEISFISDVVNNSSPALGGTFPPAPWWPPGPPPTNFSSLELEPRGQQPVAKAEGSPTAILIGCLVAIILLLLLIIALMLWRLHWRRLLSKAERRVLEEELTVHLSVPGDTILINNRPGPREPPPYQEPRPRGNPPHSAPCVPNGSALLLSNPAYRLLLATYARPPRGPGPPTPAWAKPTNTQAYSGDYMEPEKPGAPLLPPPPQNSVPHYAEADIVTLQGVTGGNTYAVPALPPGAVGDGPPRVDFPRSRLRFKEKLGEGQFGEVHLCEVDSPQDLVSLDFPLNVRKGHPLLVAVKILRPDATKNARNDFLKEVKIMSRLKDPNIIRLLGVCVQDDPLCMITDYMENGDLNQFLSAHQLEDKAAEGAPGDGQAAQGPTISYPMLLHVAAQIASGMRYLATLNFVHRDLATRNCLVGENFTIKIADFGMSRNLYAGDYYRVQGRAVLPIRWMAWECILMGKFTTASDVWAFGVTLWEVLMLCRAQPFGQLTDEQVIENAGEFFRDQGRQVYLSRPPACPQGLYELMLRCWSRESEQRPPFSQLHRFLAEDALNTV

[7] = target: Casein kinase I isoform epsilon (Homo sapiens, UniProt P49674); assay: Inhibition of CSNK1epsilon
[8] = Clearance in cynomolgus monkey at 10 mg/kg, iv; format: ADME, organism-based, Macaca fascicularis; set-up: dose 10 mg/kg, route intravenous; details: in vivo
[9] = Plasma protein binding in cynomolgus monkey by untrafiltration method; format: ADME, cell-free, Macaca fascicularis; details: read-out: PPB (converted)
Cytochrome P450 1A2 = Cytochrome P450 1A2 (Homo sapiens, UniProt P05177); assay: Inhibition of human CYP1A2; format: ADME
Rattus norvegicus [10] = assay: Inhibition of TNF-alpha-induced IL-6 production in po dosed rat plasma administered 30 mins before TNFalpha challenge measured after 2 hrs by ELISA; format: functional, organism-based
Cytochrome P450 2C19 = Cytochrome P450 2C19 (Homo sapiens, UniProt P33261); assay: Inhibition of human CYP2C19; format: ADME
Sequence of Cytochrome P450 2C19 (P33261 whole entry): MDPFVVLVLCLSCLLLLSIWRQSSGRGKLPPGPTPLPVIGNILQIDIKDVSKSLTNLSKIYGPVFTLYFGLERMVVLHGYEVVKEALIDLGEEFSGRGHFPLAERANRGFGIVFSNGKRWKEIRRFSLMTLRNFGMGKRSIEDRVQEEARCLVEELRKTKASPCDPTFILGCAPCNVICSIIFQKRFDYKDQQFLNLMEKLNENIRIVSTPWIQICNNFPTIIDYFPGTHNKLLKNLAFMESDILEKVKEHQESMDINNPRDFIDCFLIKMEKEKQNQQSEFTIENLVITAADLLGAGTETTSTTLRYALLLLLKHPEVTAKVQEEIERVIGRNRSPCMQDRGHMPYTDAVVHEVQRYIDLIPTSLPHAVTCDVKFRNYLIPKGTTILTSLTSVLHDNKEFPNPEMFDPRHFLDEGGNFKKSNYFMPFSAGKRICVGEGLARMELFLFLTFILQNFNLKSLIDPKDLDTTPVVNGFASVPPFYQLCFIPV

Rattus norvegicus [11] = assay: Analgesic activity in po dosed rat inflammatory yeast hyperalgesia model assessed as increase in tolerance to pressure; format: functional, organism-based; details: po
Rattus norvegicus [12] = assay: Inhibition of LPS-induced TNFalpha production in po dosed rat serum administered 30 mins before LPS challenge measured after […] by ELISA; format: functional, organism-based
[13] = Tmax in cynomolgus monkey at 10 mg/kg, po; format: ADME, organism-based, Macaca fascicularis; set-up: dose 10 mg/kg, route oral; details: in vivo
[14] = target: Mitogen-activated protein kinase 11 (Homo sapiens, UniProt Q15759); assay: Inhibition of P38beta
[15] = Cmax in cynomolgus monkey at 10 mg/kg, po; format: ADME, organism-based, Macaca fascicularis; set-up: dose 10 mg/kg, route oral; details: in vivo
[16] = Oral bioavailability in cynomolgus monkey at 10 mg/kg; format: ADME, organism-based, Macaca fascicularis; details: in vivo
[17] = Half life in cynomolgus monkey at 10 mg/kg, po; format: ADME, organism-based, Macaca fascicularis; set-up: dose 10 mg/kg, route oral; details: in vivo
[18] = Volume of distribution at steady state in cynomolgus monkey at 10 mg/kg, iv; format: ADME, organism-based, Macaca fascicularis; set-up: dose 10 mg/kg, route intravenous; details: in vivo, read-out: Vdss
[19] = target: Mitogen-activated protein kinase 10 (Homo sapiens, UniProt P53779); assay: Inhibition of JNK3
Sequence of Mitogen-activated protein kinase 10 (P53779 whole entry): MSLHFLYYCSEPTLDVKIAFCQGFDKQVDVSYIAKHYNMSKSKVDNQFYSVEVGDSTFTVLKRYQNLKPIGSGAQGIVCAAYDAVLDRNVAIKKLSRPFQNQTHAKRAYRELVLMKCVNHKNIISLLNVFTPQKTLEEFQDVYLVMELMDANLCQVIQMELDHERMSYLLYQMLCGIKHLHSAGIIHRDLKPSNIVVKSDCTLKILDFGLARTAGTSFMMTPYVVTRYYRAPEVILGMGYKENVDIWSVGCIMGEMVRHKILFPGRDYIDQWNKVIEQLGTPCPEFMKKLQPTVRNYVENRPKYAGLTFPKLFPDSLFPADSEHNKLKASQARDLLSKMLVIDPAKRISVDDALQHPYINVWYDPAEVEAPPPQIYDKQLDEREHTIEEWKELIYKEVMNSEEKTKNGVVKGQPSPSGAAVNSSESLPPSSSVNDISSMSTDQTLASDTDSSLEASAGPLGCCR

[20] = AUC (infinity) in cynomolgus monkey at 10 mg/kg, po; format: ADME, organism-based, Macaca fascicularis; set-up: time infinity, dose 10 mg/kg, route oral; details: plasma
[21] = target: Serine/threonine-protein kinase NLK (Homo sapiens, UniProt Q9UBE8); assay: Inhibition of NLK
Sequence of Serine/threonine-protein kinase NLK (Q9UBE8 whole entry): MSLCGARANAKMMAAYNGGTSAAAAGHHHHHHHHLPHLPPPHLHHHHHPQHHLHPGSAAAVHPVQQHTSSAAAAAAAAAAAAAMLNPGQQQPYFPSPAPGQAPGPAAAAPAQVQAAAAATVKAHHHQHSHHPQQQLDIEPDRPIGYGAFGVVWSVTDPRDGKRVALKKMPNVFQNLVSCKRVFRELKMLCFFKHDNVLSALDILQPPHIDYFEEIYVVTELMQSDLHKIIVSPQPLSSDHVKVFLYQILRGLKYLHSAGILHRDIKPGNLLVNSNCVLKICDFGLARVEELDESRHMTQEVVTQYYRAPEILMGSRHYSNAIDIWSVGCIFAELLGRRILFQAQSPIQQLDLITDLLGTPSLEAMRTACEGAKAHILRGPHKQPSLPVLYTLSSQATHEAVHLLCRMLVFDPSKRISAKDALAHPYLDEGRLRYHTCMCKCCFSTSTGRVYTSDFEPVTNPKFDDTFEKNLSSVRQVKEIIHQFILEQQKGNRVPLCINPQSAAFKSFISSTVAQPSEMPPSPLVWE

Cytochrome P450 2C9 = Cytochrome P450 2C9 (Homo sapiens, UniProt P11712); assay: Inhibition of human CYP2C9; format: ADME
Cytochrome P450 2D6 = Cytochrome P450 2D6 (Homo sapiens, UniProt P10635); assay: Inhibition of human CYP2D6; format: ADME
Sequence of Cytochrome P450 2D6 (P10635 whole entry): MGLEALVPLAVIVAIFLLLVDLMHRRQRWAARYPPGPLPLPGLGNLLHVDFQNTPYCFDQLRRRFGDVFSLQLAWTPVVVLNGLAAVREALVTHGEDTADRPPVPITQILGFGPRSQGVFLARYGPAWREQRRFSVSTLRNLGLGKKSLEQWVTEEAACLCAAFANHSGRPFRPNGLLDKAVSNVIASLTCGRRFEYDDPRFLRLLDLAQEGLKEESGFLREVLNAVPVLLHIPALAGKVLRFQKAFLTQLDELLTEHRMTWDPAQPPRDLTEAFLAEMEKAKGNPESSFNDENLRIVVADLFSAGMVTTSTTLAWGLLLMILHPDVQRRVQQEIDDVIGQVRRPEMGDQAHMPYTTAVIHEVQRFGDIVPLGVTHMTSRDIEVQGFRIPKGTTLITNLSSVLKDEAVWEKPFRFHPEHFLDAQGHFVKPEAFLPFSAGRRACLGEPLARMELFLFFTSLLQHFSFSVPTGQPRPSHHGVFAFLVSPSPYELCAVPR

Rattus norvegicus [22] = assay: Inhibition of LPS-induced IL-6 production in po dosed rat serum administered 30 mins before LPS challenge measured after […] by ELISA; format: functional, organism-based
THP-1 = assay: Inhibition of LPS-induced TNFalpha production in human THP1 cells after 2 hrs by ELISA; format: functional, cell-based; details: THP-1, 2 h
[23] = target: Ribosomal protein S6 kinase alpha-4 (Homo sapiens, UniProt O75676); assay: Inhibition of RSK4
[24] = target: Serine/threonine-protein kinase 36 (Homo sapiens, UniProt Q9NRP7); assay: Inhibition of STK36
[25] = target: Atypical kinase COQ8A, mitochondrial (Homo sapiens, UniProt Q8NI60); assay: Inhibition of ADCK3
Sequence of Atypical kinase COQ8A, mitochondrial (Q8NI60 whole entry): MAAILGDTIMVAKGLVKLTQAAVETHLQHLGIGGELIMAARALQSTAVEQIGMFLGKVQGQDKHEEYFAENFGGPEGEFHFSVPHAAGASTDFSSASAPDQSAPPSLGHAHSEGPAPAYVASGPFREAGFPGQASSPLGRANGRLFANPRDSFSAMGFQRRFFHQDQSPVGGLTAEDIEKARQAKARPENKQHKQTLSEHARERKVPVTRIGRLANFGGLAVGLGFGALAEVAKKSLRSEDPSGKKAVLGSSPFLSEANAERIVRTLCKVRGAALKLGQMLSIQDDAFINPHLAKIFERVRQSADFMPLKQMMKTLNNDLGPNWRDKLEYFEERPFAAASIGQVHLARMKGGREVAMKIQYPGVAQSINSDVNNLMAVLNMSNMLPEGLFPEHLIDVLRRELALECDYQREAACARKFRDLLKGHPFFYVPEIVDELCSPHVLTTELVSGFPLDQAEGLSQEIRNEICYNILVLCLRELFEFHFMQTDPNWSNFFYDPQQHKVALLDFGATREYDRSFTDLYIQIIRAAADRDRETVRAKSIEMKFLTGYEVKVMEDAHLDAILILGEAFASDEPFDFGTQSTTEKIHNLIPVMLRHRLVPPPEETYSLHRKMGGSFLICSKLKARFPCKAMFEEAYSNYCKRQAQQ

[26] = Oral bioavailability in Beagle dog at 10 mg/kg; format: ADME, organism-based, Canis lupus familiaris; details: in vivo
[27] = Clearance in Beagle dog at 10 mg/kg, iv; format: ADME, organism-based, Canis lupus familiaris; set-up: dose 10 mg/kg, route intravenous; details: in vivo
[28] = Plasma protein binding in Beagle dog by untrafiltration method; format: ADME, cell-free, Canis lupus familiaris; details: read-out: PPB (converted)
[29] = Plasma protein binding in Hanover-Wistar rat by untrafiltration method; format: ADME, cell-free; details: read-out: PPB (converted)
[30] = Tmax in Beagle dog at 10 mg/kg, po; format: ADME, organism-based, Canis lupus familiaris; set-up: dose 10 mg/kg, route oral; details: in vivo
[31] = Half life in Beagle dog at 10 mg/kg, po; format: ADME, organism-based, Canis lupus familiaris; set-up: dose 10 mg/kg, route oral; details: in vivo
[32] = Volume of distribution at steady state in Beagle dog at 10 mg/kg, iv; format: ADME, organism-based, Canis lupus familiaris; set-up: dose 10 mg/kg, route intravenous; details: in vivo, read-out: Vdss
[33] = AUC (infinity) in Beagle dog at 10 mg/kg, po; format: ADME, organism-based, Canis lupus familiaris; set-up: time infinity, dose 10 mg/kg, route oral; details: plasma
[34] = Cmax in Beagle dog at 10 mg/kg, po; format: ADME, organism-based, Canis lupus familiaris; set-up: dose 10 mg/kg, route oral; details: in vivo
[35] = AUC (infinity) in Hanover-Wistar rat at 10 mg/kg, po; format: ADME, organism-based; set-up: dose 10 mg/kg, route oral, time infinity; details: plasma
[36] = target: Tyrosine-protein kinase Lck (Homo sapiens, UniProt P06239); assay: Inhibition of LCK
Sequence of Tyrosine-protein kinase Lck (P06239 whole entry): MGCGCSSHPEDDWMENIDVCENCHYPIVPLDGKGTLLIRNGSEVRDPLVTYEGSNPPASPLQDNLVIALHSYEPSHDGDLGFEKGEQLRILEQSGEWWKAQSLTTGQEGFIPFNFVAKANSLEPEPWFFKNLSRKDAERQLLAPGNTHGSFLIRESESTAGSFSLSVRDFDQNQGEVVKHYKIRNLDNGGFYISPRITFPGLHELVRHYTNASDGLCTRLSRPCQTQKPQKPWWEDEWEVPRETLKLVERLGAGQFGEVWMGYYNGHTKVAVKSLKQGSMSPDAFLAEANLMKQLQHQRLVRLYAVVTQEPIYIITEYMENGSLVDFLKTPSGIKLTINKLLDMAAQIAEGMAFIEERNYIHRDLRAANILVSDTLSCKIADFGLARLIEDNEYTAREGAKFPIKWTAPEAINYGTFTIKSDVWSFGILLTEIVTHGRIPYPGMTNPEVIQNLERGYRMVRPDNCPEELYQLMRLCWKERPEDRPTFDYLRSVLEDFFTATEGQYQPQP

[37] = target: T1, Mitogen-activated protein kinase 14; assay: Inhibition of p38alpha

Structure (SMILES): CC(=O)N1CCC(Nc2ncc3cc(Oc4ccc(F)cc4F)c(=O)n(C)c3n2)CC1
- IC50 (Blood): 0.03 µM
- IC50 [1]: 0.001 µM
- Papp A→B at 10 µM [2]: 17.9 ×10⁻⁶ cm/s
- Papp B→A at 10 µM [3]: 19.8 ×10⁻⁶ cm/s
- solubility [4]: 14 µg/mL (≈ 32.6 µM)
- inhibition in vivo at 3 mg/kg (Rattus norvegicus [5]): 76%

Structure (SMILES): Cn1c(=O)c(Cc2ccccc2F)cc2cnc(NC3CCOCC3)nc21
- IC50 (Blood): 0.407 µM
- IC50 [1]: 0.042 µM

Structure (SMILES): Cn1c(=O)c(Oc2ccc(F)cc2F)cc2cnc(NC3CCOCC3)nc21 [R-1487]
- IC50 (Cytochrome P450 3A4): > 40 µM
- Kd [6]: 0.27 µM
- Kd [7]: > 1 µM
- clearance [8]: 3.05 mL/min/kg
- fraction unbound [9]: 0.046
- IC50 (Cytochrome P450 1A2): > 40 µM
- IC50 (Blood): 0.17 µM
- EC50 (Rattus norvegicus [10]): 0.02 µM
- ED50 (Rattus norvegicus [10]; po): 0.4 mg/kg
- IC50 (Cytochrome P450 2C19): > 40 µM
- ED50 (Rattus norvegicus [11]): 5.5 mg/kg
- EC50 (Rattus norvegicus [12]): 0.03 µM
- ED50 (Rattus norvegicus [12]; po): 0.8 mg/kg
- Tmax [13]: 4.67 h
- Kd [14]: 0.029 µM
- Cmax [15]: 1560 ng/mL
- Papp A→B at 10 µM [2]: 33 ×10⁻⁶ cm/s
- bioavailability [16]: 51.6%
- half-life [17]: 22.5 h
- Vd [18]: 2.73 L/kg
- Kd [19]: 0.003 µM
- AUC(0-inf) [20]: 29400 ng·h/mL
- Kd [21]: 0.006 µM
- IC50 (Cytochrome P450 2C9): > 40 µM
- IC50 (Cytochrome P450 2D6): > 40 µM
- EC50 (Rattus norvegicus [22]): 0.01 µM
- ED50 (Rattus norvegicus [22]; po): 0.4 mg/kg
- Papp B→A at 10 µM [3]: 23.7 ×10⁻⁶ cm/s
- solubility [4]: 6 µg/mL (≈ 15.4 µM)
- inhibition in vivo at 3 mg/kg (Rattus norvegicus [5]): 68%
- IC50 (THP-1): 0.047 µM
- Kd [23]: 0.073 µM
- Kd [24]: 0.33 µM
- Kd [25]: 0.32 µM

Structure (SMILES): Cn1c(=O)c(Cc2ccc(F)cc2F)cc2cnc(NC3CCOCC3)nc21
- IC50 (Blood): 0.713 µM
- IC50 [1]: 0.04 µM

Structure (SMILES): Cn1c(=O)c(Oc2ccc(F)cc2)cc2cnc(NC3CCOCC3)nc21
- IC50 (Blood): 0.547 µM

Structure (SMILES): Cl.Cn1c(=O)c(Oc2ccc(F)cc2F)cc2cnc(NC3CCOCC3)nc21 [R-1487 HYDROCHLORIDE]
- bioavailability [26]: 10.3%
- clearance [27]: 54.2 mL/min/kg
- fraction unbound [28]: 0.096
- fraction unbound [29]: 0.044
- Tmax [30]: 0.5 h
- half-life [31]: 2.23 h
- Vd [32]: 4.65 L/kg
- AUC(0-inf) [33]: 310 ng·h/mL
- Cmax [34]: 110 ng/mL
- AUC(0-inf) [35]: 2350 ng·h/mL

Structure (SMILES): C[C@H](Cn1ncnn1)Nc1ncc2cc(Oc3ccc(F)cc3F)c(=O)n(C)c2n1
- IC50 (Blood): 0.318 µM

Structure (SMILES): C[C@@H](Cn1ncnn1)Nc1ncc2cc(Oc3ccc(F)cc3F)c(=O)n(C)c2n1
- IC50 (Blood): 0.009 µM
- Papp A→B at 10 µM [2]: 30.1 ×10⁻⁶ cm/s
- Papp B→A at 10 µM [3]: 19.7 ×10⁻⁶ cm/s
- solubility [4]: 23 µg/mL (≈ 55.5 µM)
- inhibition in vivo at 3 mg/kg (Rattus norvegicus [5]): 90%

Structure (SMILES): CCN(CC)CCOc1ccc(Nc2ncc3c(n2)N(C)C(=O)N(c2c(Cl)cccc2Cl)C3)cc1
- Kd [36]: 0.0002 µM
- Kd [37]: 0.01 µM

Structure (SMILES): CC(C)(O)Cn1c(=O)c(Oc2ccc(F)cc2F)cc2cnc(NC3CCOCC3)nc21
- IC50 (Blood): 0.084 µM
- IC50 [1]: 0.012 µM

Structure (SMILES): Cn1c(=O)c(Oc2ccccc2F)cc2cnc(NC3CCOCC3)nc21
- IC50 (Blood): 0.0648 µM
- IC50 [1]: 0.015 µM

Structure (SMILES): O=C1Nc2nc(N[C@H]3CC[C@H](O)CC3)ncc2CN1c1ccccc1Cl
- Kd [36]: > 20 µM
- Kd [37]: 0.032 µM

Structure (SMILES): Cn1c(=O)c(Oc2ccc(F)cc2F)cc2cnc(NCCS(C)(=O)=O)nc21
- IC50 (Blood): 1.49 µM
- IC50 [1]: 0.223 µM

Structure (SMILES): Cn1c(=O)c(Oc2ccccc2)cc2cnc(NC3CCOCC3)nc21
- IC50 (Blood): 0.451 µM

Structure (SMILES): CC(C)Nc1ncc2cc(Oc3ccc(F)cc3F)c(=O)n(C)c2n1
- IC50 (Blood): 0.045 µM
- IC50 [1]: 0.004 µM

Structure (SMILES): CS(=O)(=O)N1CCC(n2c(=O)c(Oc3ccc(F)cc3F)cc3cnc(NC4CCOCC4)nc32)CC1
- IC50 (Blood): 0.052 µM
- IC50 [1]: 0.001 µM

Structure (SMILES): O=c1c(Oc2ccc(F)cc2F)cc2cnc(NC3CCOCC3)nc2n1C1CCS(=O)(=O)CC1
- IC50 (Blood): 0.011 µM
- IC50 [1]: 0.001 µM

Structure (SMILES): Cn1c(=O)c(Oc2cccc(F)c2)cc2cnc(NC3CCOCC3)nc21
- IC50 (Blood): 1.22 µM
- IC50 [1]: 0.594 µM

Structure (SMILES): O=c1c(Oc2ccc(F)cc2F)cc2cnc(NC3CCOCC3)nc2n1C1CC1
- IC50 (Blood): 0.013 µM
- IC50 [1]: 0.009 µM
